Patent US8883415B2, “Aza-benzazolium containing cyanine dyes” (Life Technologies Corporation, priority 1999, dated 2014)

Legend:
Type in all cases: binding
double-stranded DNA = test: Detecting double-stranded DNA in solution (fluorescence microplate reader)
Description: Samples containing 0.1 ng/mL to 1 microgram/mL double-stranded DNA are prepared in 10 mM Tris-HCl, 1 mM EDTA, pH 7.5. The selected dye of the invention is dissolved in DMSO at a concentration of 1-10 mM and then diluted into the same buffer at a concentration sufficient to achieve final optical densities of 0.1 and 0.01 at 500 nm, 530 nm, 540 nm or 560 nm. Equal volumes (100 microliters each) of DNA sample solution and dye solution at each concentration are combined and mixed gently at room temperature in a microplate well.
Samples are allowed to equilibrate for 5-60 minutes, protected from light, and the fluorescence of the sample is measured using a fluorescence microplate reader. DNA concentration is determined by comparison of the sample fluorescence with a standard curve obtained with that dye for each dye concentration. The sensitivity limit of several dyes in this assay is shown (Table 5).

[1] = test system: double-stranded bacteriophage λ cl857 DNA that is digested with HindIII restriction endonuclease; test: Detecting nucleic acids in gels; conditions: POLAROID 667 B&W film; FOTODYNE 254 nm epi.; 1 micromolar dye
[2] = test system: double-stranded bacteriophage λ cl857 DNA that is digested with HindIII restriction endonuclease; test: Detecting nucleic acids in gels; conditions: 1 micromolar dye
Description: DNA samples are loaded onto agarose or polyacrylamide gels and electrophoresed using standard conditions. Selected dyes of the invention are dissolved in DMSO at a concentration of 1-10 micromolar and diluted into 0.5×TBE buffer to a final concentration of 1 micromolar dye. Gels are incubated for 20-90 minutes in this staining solution, with gentle agitation, at room temperature, protected from light. Nucleic acids are visualized by transillumination at 300 nm, followed by direct visual detection or photography using Polaroid black-and-white print film. Nucleic acids are alternatively visualized by scanning using a FMBIO II laser scanner with a 532 nm frequency-doubled YAG laser source or a charge-coupled device camera system coupled with an ultraviolet (300 nm) light source, or a visible light transilluminator.

[3] = test system: Escherichia coli ribosomal RNA; test: Detecting RNA in solution; conditions: Excitation 540 nm/Emission 570 nm
Description: (§1) Selected dyes of the invention are dissolved in DMSO at 1-10 micromolar concentration, then diluted into 10 mM Tris-HCl, 1 mM EDTA, pH 7.5 to a final optical density of 0.1 or 0.01 at 530 nm or 540 nm. These dye solutions are combined with an equal volume of Escherichia coli ribosomal RNA at concentrations ranging from 0.25 ng/mL to 1 microgram/mL in microplate wells. The resulting mixtures are mixed gently and incubated for 5-60 minutes at room temperature, protected from light, and the sample fluorescence is measured.

[4] = test system: 18-base oligodeoxynucleotide sequencing primer; test: Detecting oligonucleotides in solution; conditions: Excitation 540 nm/Emission 570 nm
Description: as §1, with “The resulting” for “These”, “an 18-base oligodeoxynucleotide sequencing primer solution” for “Escherichia coli ribosomal RNA”, “of 0.1” for “ranging from 0.25”, “the same buffer.” for “microplate wells.”, “mixture is” for “mixtures are”, “measured in a fluorescence microplate reader.” for “measured.”

[5] = Excitation 500 nm/Emission 560 nm
[6] = Excitation 560 nm/Emission 585 nm
[7] = Excitation 540 nm/Emission 570 nm
[8] = Excitation 530 nm/Emission 560 nm
[9] = BOEHRINGER MANNHEIM LUMIIMAGER CCD, 300 nm trans., 520 nm em.
[10] = BOEHRINGER MANNHEIM LUMIIMAGER CCD, 300 nm trans., 545 nm em
[11] = HITACHI FMBIO II laser scanner, 532 nm freq.-doubled YAG laser
[12] = POLAROID 667 B&W film, DARK READER visible light box
[13] = POLAROID 667 B&W film, FOTODYNE 300 nm trans.

CC1/C(=C/c2nc3c(ccc[n+]3C)o2)C=Cc2ccccc21.Cc1ccc(S(=O)(=O)[O-])cc1 (centres unmarked) [Compound 53]
Sensitivity Limit, High dye concentration (0.1 OD) (double-stranded DNA; [5]): 10 ng/mL
Sensitivity Limit, Low dye concentration (0.01 OD) (double-stranded DNA; [5]): >10 ng/mL

CN1C=C/C(=C\c2nc3c(cc(Cl)c[n+]3C)s2)c2ccccc21.[I-] [Compound 39]
Sensitivity Limit, High dye concentration (0.1 OD) (double-stranded DNA; [6]): 10 ng/mL
Sensitivity Limit, Low dye concentration (0.01 OD) (double-stranded DNA; [6]): 5.0 ng/mL

CN1C=C/C(=C\c2nc3c(cc(Cl)c[n+]3C)s2)c2ccccc21.[I-] [Compound 34]
Sensitivity Limit, High dye concentration (0.1 OD) (double-stranded DNA; [7]): <10 ng/mL
Sensitivity Limit, Low dye concentration (0.01 OD) (double-stranded DNA; [7]): 0.2 ng/mL

CCCCC1=C/C(=C\c2nc3c(ccc[n+]3C)o2)c2ccccc2N1c1ccccc1.[I-] [Compound 15]
Sensitivity for detecting double-stranded DNA in agarose gels [1]: 60 pg
Sensitivity Limit, High dye concentration (0.1 OD) (double-stranded DNA; [8]): 10 ng/mL
Sensitivity Limit, Low dye concentration (0.01 OD) (double-stranded DNA; [8]): 0.5 ng/mL
Sensitivity for detecting double-stranded DNA in agarose gels [2, 9]: 210 pg
Sensitivity for detecting double-stranded DNA in agarose gels [2, 10]: 100 pg
Sensitivity for detecting double-stranded DNA in agarose gels [2, 11]: 100 pg
Sensitivity for detecting double-stranded DNA in agarose gels [2, 12]: 480 pg
Sensitivity for detecting double-stranded DNA in agarose gels [2, 13]: 240 pg

C[n+]1cccc2oc(/C=C3\C=C(c4ccccc4)N(c4ccccc4)c4ccccc43)nc21.[I-] [Compound 17]
Sensitivity Limit, High dye concentration (0.1 OD) (double-stranded DNA; [8]): <10 ng/mL
Sensitivity Limit, Low dye concentration (0.01 OD) (double-stranded DNA; [8]): 2.0 ng/mL

CN1C(Sc2ccccn2)=C/C(=C\c2nc3c(ccc[n+]3C)s2)c2ccccc21.[I-] [Compound 32]
Sensitivity Limit, High dye concentration (0.1 OD) (double-stranded DNA; [8]): 10 ng/mL
Sensitivity Limit, Low dye concentration (0.01 OD) (double-stranded DNA; [8]): 1.0 ng/mL

CCN(CC)Cc1ccc(C2=C/C(=C\c3nc4c(ccc[n+]4C)o3)c3cc(OC)ccc3N2C)cc1.[I-] [Compound 23]
Sensitivity for detecting double-stranded DNA in agarose gels [1]: 60 pg
Sensitivity Limit, High dye concentration (0.1 OD) [3]: 200 ng/mL
Sensitivity Limit, Low dye concentration (0.01 OD) [3]: 2.5 ng/mL
Sensitivity Limit, High dye concentration (0.1 OD) [4]: <10 ng/mL
Sensitivity Limit, Low dye concentration (0.01 OD) [4]: 1.0 ng/mL
Sensitivity Limit, High dye concentration (0.1 OD) (double-stranded DNA; [7]): <10 ng/mL
Sensitivity Limit, Low dye concentration (0.01 OD) (double-stranded DNA; [7]): 0.2 ng/mL
Sensitivity for detecting double-stranded DNA in agarose gels [2, 9]: 830 pg
Sensitivity for detecting double-stranded DNA in agarose gels [2, 10]: 100 pg
Sensitivity for detecting double-stranded DNA in agarose gels [2, 11]: 5 pg
Sensitivity for detecting double-stranded DNA in agarose gels [2, 12]: 240 pg
Sensitivity for detecting double-stranded DNA in agarose gels [2, 13]: 120 pg

C[n+]1cccc2oc(/C=C3\C=C(Cl)N(c4ccccc4)c4ccccc43)nc21 [Compound 29]
Sensitivity Limit, High dye concentration (0.1 OD) (double-stranded DNA; [7]): 100 ng/mL
Sensitivity Limit, Low dye concentration (0.01 OD) (double-stranded DNA; [7]): 2.0 ng/mL

COc1ccc2c(c1)/C(=C/c1nc3c(ccc[n+]3C)o1)C=C(c1ccccc1)N2C.[I-] [Compound 19]
Sensitivity Limit, High dye concentration (0.1 OD) [3]: 20 ng/mL
Sensitivity Limit, Low dye concentration (0.01 OD) [3]: 10 ng/mL
Sensitivity Limit, High dye concentration (0.1 OD) [4]: <10 ng/mL
Sensitivity Limit, Low dye concentration (0.01 OD) [4]: >10 ng/mL
Sensitivity Limit, High dye concentration (0.1 OD) (double-stranded DNA; [7]): <10 ng/mL
Sensitivity Limit, Low dye concentration (0.01 OD) (double-stranded DNA; [7]): 0.5 ng/mL

CN1C=C/C(=C\c2nc3c(cc(Cl)c[n+]3C)s2)c2ccccc21.[I-] [Compound 35]
Sensitivity Limit, High dye concentration (0.1 OD) (double-stranded DNA; [7]): 10 ng/mL
Sensitivity Limit, Low dye concentration (0.01 OD) (double-stranded DNA; [7]): 0.5 ng/mL

CN1C=C/C(=C\c2sc3ncccc3[n+]2C)c2ccccc21.[I-] [Compound 33]
Sensitivity Limit, High dye concentration (0.1 OD) (double-stranded DNA; [7]): 100 ng/mL
Sensitivity Limit, Low dye concentration (0.01 OD) (double-stranded DNA; [7]): >10 ng/mL

CN1C=CC(Cc2sc3c(F)nc(F)c(F)c3[n+]2C)c2ccccc21.[I-] (centres unmarked) [Compound 49]
Sensitivity Limit, High dye concentration (0.1 OD) (double-stranded DNA; [5]): 20 ng/mL
Sensitivity Limit, Low dye concentration (0.01 OD) (double-stranded DNA; [5]): >10 ng/mL
